What was measured:
Anas platyrhynchos = details: short-term; oral; feed; mortality
Colinus virginianus = details: acute, oral, mortality; for LC50: diet
Rattus norvegicus = details: inhalation
[1] = reproduction developmental, mortality

Row | SMILES | LC50 (Anas platyrhynchos) [mg/kg] | LC50 (Colinus virginianus) [mg/kg] | LD50 (Colinus virginianus) [mg/kg-day] | NOAEL (Rattus norvegicus; chronic, duration: 2 years) [mg/kg-day] | NOAEL (Rattus norvegicus; [1]) [mg/kg-day] | NOAEL (Rattus norvegicus; subchronic, duration: 90 days) [mg/kg-day]
1 | P [Phosphine] | 762 | 124 | < 9.2 | 1.1 | 1.9 | 1.1
2 | [Ca+2].[Ca+2].[Ca+2].[P-3].[P-3] [Tricalcium diphosphide] | 2040 | 330 | < 24.7 | 1.1 | 1.9 | 1.1

Source: EPA's ToxValDB 9.5 (doi:10.2903/j.efsa.2011.2419)
